Legend:
HMG-CoA reductase = target: T1, HMG-CoA reductase (Rattus norvegicus, UniProt P51639); experiment: HMG-CoA reductase activity in liver microsomes of fed rats; format: in vivo
T1 construct: microsomes were separated from liver tissues to be used as an enzyme source; from tissue; host or cells: liver microsomes of fed rats
T1 sequence (P51639 1-887): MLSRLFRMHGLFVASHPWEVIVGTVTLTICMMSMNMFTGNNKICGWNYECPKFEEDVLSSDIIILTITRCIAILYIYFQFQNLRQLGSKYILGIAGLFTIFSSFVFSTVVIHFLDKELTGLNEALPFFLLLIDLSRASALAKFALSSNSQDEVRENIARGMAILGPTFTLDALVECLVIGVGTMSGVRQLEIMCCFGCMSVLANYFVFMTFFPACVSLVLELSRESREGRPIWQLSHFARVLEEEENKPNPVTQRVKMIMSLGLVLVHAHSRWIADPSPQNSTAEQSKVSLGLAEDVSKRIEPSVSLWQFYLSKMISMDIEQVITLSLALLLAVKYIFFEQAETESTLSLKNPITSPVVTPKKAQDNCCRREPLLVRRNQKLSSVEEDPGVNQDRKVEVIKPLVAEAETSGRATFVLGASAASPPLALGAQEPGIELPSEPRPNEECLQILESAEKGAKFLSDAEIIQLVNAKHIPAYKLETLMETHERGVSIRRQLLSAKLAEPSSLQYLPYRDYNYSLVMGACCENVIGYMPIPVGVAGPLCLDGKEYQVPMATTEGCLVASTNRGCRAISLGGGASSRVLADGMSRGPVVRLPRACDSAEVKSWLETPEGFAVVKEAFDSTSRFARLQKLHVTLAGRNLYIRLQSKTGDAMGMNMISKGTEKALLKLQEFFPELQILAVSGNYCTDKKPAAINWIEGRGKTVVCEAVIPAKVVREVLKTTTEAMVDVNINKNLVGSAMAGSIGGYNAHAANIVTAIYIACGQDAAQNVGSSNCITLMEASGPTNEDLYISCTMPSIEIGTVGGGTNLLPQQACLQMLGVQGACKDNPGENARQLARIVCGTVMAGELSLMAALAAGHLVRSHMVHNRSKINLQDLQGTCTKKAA
Method: To determine the effect of feeding NG5006 to rats on the activities of ACAT and HMG-CoA reductase, microsomes were separated from liver tissues to be used as an enzyme source.
1 g each of the livers taken from each group of rats of Example 12 was homogenized in 5 ml of homogenization medium(0. 1 M KH2PO4, pH 7.4, 0.1 mM EDTA and 10 mM β-mercaptoethanol). The homogenate was centrifuged at 3,000×g for 10 min. at 4° C. and the supernatant thus obtained was centrifuged at 15,000×g for 15 min. at 4° C. to obtain a supernatant. The supernatant was put into an ultracentrifuge tube(Beckman) and centrifuged at 100,000×g for 1 hour at 4° C. to obtain microsomal pellets, which were then suspended in 3 ml of the homogenization medium and centrifuged at 100,000×g for 1 hour at 4° C. The pellets thus obtained were suspended in 1 ml of the homogenization medium. The protein concentration of the resulting suspension was determined by Lowry's method and then adjusted to 4 to 8 mg/ml. The resulting suspension was stored in a deep freezer(Biofreezer, Forma Scientific Inc.).
The activity of HMG-CoA reductase was determined by employing [^14C]HMG-CoA, in accordance with the method of Shapiro et al.(Biochemica et Biophysica Acta, 370, 369-377(1974)) as follows.
The enzyme in the supernatant containing the microsome obtained in (Step 1) was activated at 37° C. for 30 min. Added to a reaction tube were 20 μl of HMG-CoA reductase assay buffer(0.25M KH2PO4(pH 7.0), 8.75 mM EDTA, 25 mM DTT, 0.45 M KCl and 0.25 mg/ml BSA), 5 μl of 50 mM NADPH, 5 μl of [^14C]HMG-CoA(0.05μ Ci/tube, final conc. 120μM), and 10 μl of activated microsomal enzyme(0.03-0.04 mg), and the mixture was incubated at 37° C. for 30 min. […] A region having a Rf value ranging from 0.65 to 0.75 was removed by scraping with a disposable cover slips and assayed for radioactivity with 1450 Microbeta liquid scintillation counter(Wallac Co., Finland). Enzyme activities were calculated as picomoles mevalonic acid synthesized per min. per mg protein(pmoles/min/mg protein).

ACAT = ACAT activity in fed rabbits; format: in vivo, rabbit; details: rabbits fed 1% cholesterol plus 1 mg/kg Lovastatin or 0.1% NG5006, 8 weeks
Method: 22 three-month-old New Zealand White rabbits(Yeonam Horticulture and Animal Husbandry College, Korea) each weighing about 2.0 to 2.3 kg were bred under a condition of temperature 20±2° C., relative humidity 55±10%, and photoperiod 12L/12D. The rabbits were divided two groups of 6 rabbits and a group of 10 rabbits, and the rats of three groups were fed with three different diets, i.e., RC4 diet(Oriental Yeast Co., Japan) containing 1% cholesterol(Control group); 1% cholesterol plus 1 mg/kg Lovastatin® (Merck, U.S.A.)(Comparative group); and 1% cholesterol plus 0.1% NG5006, respectively. RC4 diet comprises 7.6% moisture, 22.8% crude protein, 2.8% crude fat, 8.8% crude ash, 14.4% crude cellulose and 43.6% soluble nitrogen-free substances. The rabbits were bred for 8 weeks while being allowed free access to the diets and water.
The effect of feeding NG5006 to rabbits on the activities of ACAT was determined using the rabbits bred in Step 1 of Example 14 in accordance with procedure disclosed in step 1 of Example 13.

ICR mice = experiment: Toxicity of orally administered NG5006 in mice; format: in vivo, mouse; details: single oral dose 1, 2 and 4 g/kg
Method: 4 week-old, specific pathogen-free ICR female mice(12 heads) and male mice(12 heads) were bred under a condition of temperature 22±3° C., moisture 55±10% and photoperiod 12L/12D. Fodder(Cheiljedang Co., mouse and rat fodder) and water were sterilized and fed to the mice.
NG5006 was dissolved in 0.5% Tween 80 to a concentration of 100 mg/ml. The solution thus obtained was orally administered to the mice in amounts of 0.2 ml(1 g/kg), 0.4 ml(2 g/kg) and 0.8 ml(4g/kg) per 20 g of mouse body weight, respectively. […] The weight changes of the mice were recorded every day to examine the effect of NG5006. Further, on the 7th day, the mice were sacrificed and the internal organs were visually examined.

SMILES: CCCCCCCCCCCCCCCCOc1cc(O)c2c(c1)OC(c1ccc(O)cc1)CC2=O (centres unmarked) [NG5006, Naringenin 7-O-cetyl Ether]
- HMG-CoA activity lower than that of the control group (HMG-CoA reductase; NG5006-fed rat group): 27.5%
- HMG-CoA reductase activity (HMG-CoA reductase; liver microsomes of rats fed 1% cholesterol plus 0.02% naringenin or 0.036% NG5006, six weeks): 81.6 ± 6.0 pmole/min/mg protein
- ACAT activity (ACAT): 215.2 ± 30.3 pmole/min/mg protein
- % Inhibition on ACAT Activity (ACAT; versus control group): 16.2%
- weight change (ICR mice; 7 day test period): no weight loss
- survival (ICR mice; observed 7 days): All the mice were alive at day 7
- toxicity (ICR mice; observed 7 days): no toxicity
- autopsy, pathological abnormality (ICR mice; sacrificed on the 7th day): did not develop any pathological abnormality

From patent US6455577B2, “Flavanone derivatives and composition for preventing or treating blood lipid level-related diseases comprising same” (Korea Research Institute of Bioscience and Biotechnology, priority 2000, dated 2002)
